The values that follow come from BindingDB's records for patent US20250382298 (Suzhou Genhouse Bio Co., 2025).

One may read the IC50 as the concentration needed to halve the response being measured.

The target of the experiment is T1, Kinesin-like protein KIF18A (Homo sapiens, UniProt Q8NI77).
T1 sequence (Q8NI77 whole entry): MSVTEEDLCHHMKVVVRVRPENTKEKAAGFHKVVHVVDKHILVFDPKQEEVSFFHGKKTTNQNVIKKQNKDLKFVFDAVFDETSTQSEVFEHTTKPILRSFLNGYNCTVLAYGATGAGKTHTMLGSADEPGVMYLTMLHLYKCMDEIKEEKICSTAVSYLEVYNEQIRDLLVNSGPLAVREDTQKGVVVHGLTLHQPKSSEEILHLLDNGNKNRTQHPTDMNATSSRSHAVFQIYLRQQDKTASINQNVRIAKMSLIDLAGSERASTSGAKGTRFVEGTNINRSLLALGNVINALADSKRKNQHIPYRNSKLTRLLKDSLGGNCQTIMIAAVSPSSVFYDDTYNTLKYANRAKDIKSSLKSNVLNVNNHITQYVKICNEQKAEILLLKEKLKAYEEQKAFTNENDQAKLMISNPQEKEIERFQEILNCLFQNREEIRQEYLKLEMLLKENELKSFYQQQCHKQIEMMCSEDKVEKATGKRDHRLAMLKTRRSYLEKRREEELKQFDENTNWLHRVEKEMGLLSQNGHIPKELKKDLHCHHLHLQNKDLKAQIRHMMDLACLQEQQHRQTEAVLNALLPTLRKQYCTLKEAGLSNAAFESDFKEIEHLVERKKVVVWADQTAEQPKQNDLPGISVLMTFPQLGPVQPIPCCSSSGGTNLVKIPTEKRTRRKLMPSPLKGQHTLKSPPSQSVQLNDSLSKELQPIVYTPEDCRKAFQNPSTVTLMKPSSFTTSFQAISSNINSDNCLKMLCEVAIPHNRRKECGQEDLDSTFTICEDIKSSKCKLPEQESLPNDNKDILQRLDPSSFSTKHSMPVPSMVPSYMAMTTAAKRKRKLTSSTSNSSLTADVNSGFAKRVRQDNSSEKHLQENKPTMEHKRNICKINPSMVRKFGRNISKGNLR
As to the kind of experiment: Inhibitory Activity Assay. How it is done: In this experiment, an ADP-Glo kit was used to detect the inhibitory activity of the compounds against KIF18A. Each compound was prepared into a 10 mM stock solution with DMSO, which was then diluted at 1:5 to obtain 9 gradients with the initial final concentration set at 10 μM. Meanwhile, a control group and a blank group were also set up. The reaction buffer consisted of 15 mM Tris (pH 7.5), 10 mM MgCl2, and 0.01% Pluronic F-68. […] Finally, the ADP-Glo reagent was added to detect the luminescence intensity, where the luminescence intensity is directly proportional to the ADP content. Inhibition rate (%)=(1−Sample signal)/DMSO signal×100. Sample signal is the value of the compound group, and DMSO signal is the value of the DMSO control group. Then, the inhibition rate at each concentration was calculated, and the IC50 was determined by fitting using the GraphPadPrism 7.0 software.
With `CS(=O)(=O)Nc1ccc(C(=O)Nc2cn3ccnc3c(N3CCC(F)(F)CC3)n2)c(N2CC3CCC(C3)C2)c1` [US20250382298, Compound 19], the concentration for half-maximal inhibition (IC50) was found to be 0.0268 µM.
As for `O=C(Nc1cc2cccnc2c(N2CCC(F)(F)CC2)n1)c1ccc(NS(=O)(=O)CCO)cc1N1CCC2(CC1)CC2` [US20250382298, Compound 21], the figure is 0.0107 µM; as for `O=C(Nc1cn2ccnc2c(N2CCC3(CC2)CC3)n1)c1ccc(NS(=O)(=O)CCO)cc1N1CCC2(CC1)CC2` [US20250382298, Compound 31], 0.0553 µM; as for `CS(=O)(=O)Nc1ccc(C(=O)Nc2cc3cccnc3c(N3CCC(F)(F)CC3)n2)c(N2CCC3(CC2)CC3)c1` [US20250382298, Compound 32], 0.117 µM.
Next, `CS(=O)(=O)Nc1ccc(C(=O)Nc2cc3cccnc3c(N3CCC(F)(F)CC3)n2)c(N2CC3CCC(C3)C2)c1` [US20250382298, Compound 33]: 0.111 µM; `O=C(Nc1cn2c(F)cnc2c(N2CCC(F)(F)CC2)n1)c1ccc(NS(=O)(=O)CCO)cc1N1CCC2(CC1)CC2` [US20250382298, Compound 34]: 0.0443 µM.
As for `O=C(Nc1cc2nccnc2c(N2CCC(F)(F)CC2)n1)c1ccc(NS(=O)(=O)CCO)cc1N1CCC2(CC1)CC2` [US20250382298, Compound 39], the figure is 0.0322 µM; as for `O=C(Nc1cn2c(F)cnc2c(N2CCC(F)(F)CC2)n1)c1ccc(NS(=O)(=O)CCO)cc1N1CC2CCC(C2)C1` [US20250382298, Compound 51], 0.01 µM.
For `CS(=O)(=O)Nc1ccc(C(=O)Nc2cc3nccnc3c(N3CCC(F)(F)CC3)n2)c(N2CC3CCC(C3)C2)c1` [US20250382298, Compound 72], the half-maximal inhibitory concentration (IC50) is 0.134 µM.
